These results are taken from ChEMBL document CHEMBL1201862, “PubChem BioAssay data set” (2004).

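All cell lines were grown in 96-well plates and treated with compound for 48 hours. GI50: concentration for 50% inhibition of growth.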 The source made the active and inactive calls. Rule as the data show it: active = GI50 up to about 1.1 µM and inactive = higher. Some results are limits rather than exact numbers.

Among the test systems are COLO 205; EKVX; HCC 2998; HCT-15; HOP-92; HT-29; Malme-3M; NCI-H226; NCI-H23; NCI-H460; OVCAR-4; OVCAR-5; OVCAR-8; SF-295; SK-MEL-28; SNB-19; SR; UACC-257; DMS-114; M19-MEL.
Common to all, as to test: DTP human tumour cell line panel, 48 h

The GI50 is the concentration that inhibits growth by half. For `Cc1cc2c(cc1C)NC1=C(O)C(c3c[nH]c4ccc(COc5ccccc5)cc34)OC1=N2` (centres undefined), the GI50 in the test with COLO 205 was > 100 µM (inactive); in the test with EKVX it was 37.8 µM (inactive); in the test on HCC 2998, 17.1 µM (inactive); in the test with HCT-15, above 100 µM; in the test with HOP-92 it was 33.3 µM (inactive); in the test on HT-29 it was > 100 µM (inactive). For the same compound, the GI50 was > 100 µM (inactive) with Malme-3M; 58.7 µM (inactive) in the test on NCI-H226; > 100 µM (inactive) in the test with NCI-H23; > 100 µM (inactive) in the test with NCI-H460; > 100 µM (inactive) in the test on OVCAR-4; > 100 µM (inactive) with OVCAR-5. In addition, the GI50 in the test on OVCAR-8 was 43.9 µM (inactive); with SF-295 it was 33.6 µM (inactive); with SK-MEL-28, > 100 µM (inactive); in the test with SNB-19, 42.2 µM (inactive); in the test on SR, 65.9 µM (inactive); in the test on UACC-257, 50 µM (inactive).

As to `Cc1c(N2C(=O)/C(=C/c3ccc(N(CCC#N)CCC#N)cc3)N=C2c2ccccc2)c(=O)n(-c2ccccc2)n1C`, the GI50 was > 100 µM (inactive) in the test with COLO 205; > 100 µM (inactive) in the test on EKVX; > 100 µM (inactive) in the test on HCC 2998; 70 µM in the test with HCT-15; > 100 µM (inactive) with HOP-92; > 100 µM (inactive) in the test with HT-29. Besides, the GI50 with Malme-3M, with NCI-H226, with NCI-H23, with NCI-H460, in the test on OVCAR-4 and in the test with OVCAR-5 was > 100 µM (inactive) each time. The GI50 with OVCAR-8, in the test on SF-295, with SK-MEL-28, in the test with SNB-19, in the test on SR and with UACC-257 was > 100 µM (inactive) each time.

Turning to `COC1(OC)c2no[n+]([O-])c2CCC1O` (centres undefined), the GI50 in the test on COLO 205 is > 100 µM (inactive); with EKVX, > 100 µM (inactive); in the test on HCC 2998, > 100 µM (inactive); in the test on HCT-15 it was above 100 µM; with HOP-92 it was 0.0255 µM (active); in the test with HT-29 it was > 100 µM (inactive). In addition, the GI50 in the test with Malme-3M, in the test with NCI-H226, in the test with NCI-H23, in the test with NCI-H460, with OVCAR-4 and in the test on OVCAR-5 was > 100 µM (inactive) in each case. In addition, the GI50 in the test on OVCAR-8, with SF-295, in the test with SK-MEL-28, in the test on SNB-19, in the test with SR and with UACC-257 was > 100 µM (inactive) each time.

Regarding `COC(=O)CC1(O)C(C=C(C)C)C(C(=O)OC)C(=O)C(C(=O)OC)C1C(=O)OC` (centres undefined), the GI50 in the test with COLO 205 was > 100 µM (inactive); in the test with EKVX, > 100 µM (inactive); with HCC 2998, > 100 µM (inactive); with HCT-15, above 100 µM; in the test with HOP-92 it was > 100 µM (inactive); with HT-29, > 100 µM (inactive). The GI50 in the test with Malme-3M, in the test on NCI-H226, in the test on NCI-H23, in the test with NCI-H460, with OVCAR-4 and in the test on OVCAR-5 was > 100 µM (inactive) each time. Further, the GI50 in the test with OVCAR-8, in the test on SF-295, in the test on SK-MEL-28, in the test on SNB-19, in the test with SR and in the test with UACC-257 was > 100 µM (inactive) each time.

For `c1ccc2c(c1)CC1c3[nH]c4ccccc4c3CCN21` (centres undefined), the GI50 in the test with COLO 205 was > 10 µM (inactive); in the test on EKVX, > 10 µM (inactive); in the test on HCC 2998 it was > 10 µM (inactive); in the test with HCT-15 it was above 10 µM; in the test on HOP-92 it was > 10 µM (inactive); in the test on HT-29, > 10 µM (inactive). Moreover, the GI50 in the test with Malme-3M, in the test with NCI-H226, in the test on NCI-H23, in the test on NCI-H460, in the test on OVCAR-4 and in the test on OVCAR-5 was > 10 µM (inactive) each time. Moreover, the GI50 in the test on OVCAR-8, with SF-295, with SK-MEL-28, with SNB-19, in the test with SR and in the test on UACC-257 was > 10 µM (inactive) in each case.

Take `COc1cc(/C=C2\[C@H]3c4c(c(OC)c(C)c(OC)c4OC)C[C@@H](C(=O)N2Cc2ccccc2)N3C(=O)OC(C)C)c(OC)c(C)c1OC`: the GI50 in the test on COLO 205 is 53.7 µM (inactive); in the test on DMS-114 it was 47.5 µM (inactive); with EKVX it was 52.5 µM (inactive); in the test with HCC 2998, 29.6 µM (inactive); in the test with HOP-92, 8.34 µM (inactive); with HT-29 it was 53.2 µM (inactive). Further, the GI50 is 60.1 µM (inactive) with Malme-3M; 6.08 µM (inactive) with NCI-H226; 78 µM (inactive) in the test with NCI-H23; 5.31 µM (inactive) with NCI-H460; 69.3 µM (inactive) in the test with OVCAR-4; > 100 µM (inactive) with OVCAR-5. For the same compound, the GI50 with OVCAR-8 was > 100 µM (inactive); with SF-295, > 100 µM (inactive); with SK-MEL-28, > 100 µM (inactive); in the test with SR, 21.8 µM (inactive); in the test on UACC-257, 34 µM (inactive).

In the case of `C#CC1(O)CCCCCCCCC2(CCCCCCCC1)OCCO2`, the GI50 in the test on COLO 205 was 17.4 µM (inactive); in the test on EKVX it was 18.4 µM (inactive); in the test on HCC 2998, 15.5 µM (inactive); in the test with HCT-15 it was 18 µM; with HOP-92, 17.4 µM (inactive); in the test on HT-29, 18.3 µM (inactive). In addition, the GI50 is 19.5 µM (inactive) in the test on Malme-3M; 17 µM (inactive) with NCI-H226; 16.8 µM (inactive) in the test with NCI-H23; 21.3 µM (inactive) in the test on NCI-H460; 4.81 µM (inactive) with OVCAR-4; 22 µM (inactive) with OVCAR-5. In addition, the GI50 is 19.4 µM (inactive) with OVCAR-8; 19.8 µM (inactive) with SF-295; 19.5 µM (inactive) with SK-MEL-28; 18.9 µM (inactive) in the test on SNB-19; 12.3 µM (inactive) in the test on SR; 23.4 µM (inactive) with UACC-257.

Take `C=C1CC(CC)(CCN2C(=O)c3ccccc3C2=O)OC1=O` (centres undefined): the GI50 with COLO 205 was 16.7 µM (inactive); with DMS-114 it was 19.2 µM (inactive); in the test on EKVX, 17 µM (inactive); with HCC 2998 it was 17.7 µM (inactive); with HCT-15 it was 13.9 µM; in the test with HT-29, 14.1 µM (inactive). In addition, the GI50 was 11.8 µM (inactive) in the test on Malme-3M; 13.8 µM (inactive) in the test with NCI-H226; 14.1 µM (inactive) in the test on NCI-H23; 69.2 µM (inactive) in the test on NCI-H460; 14.2 µM (inactive) in the test on OVCAR-4; 16.4 µM (inactive) with OVCAR-8. Further, the GI50 in the test on SF-295 was 29.2 µM (inactive); in the test on SNB-19, > 10 µM (inactive); in the test with SR, 27.4 µM (inactive); in the test on UACC-257, 13.8 µM (inactive).

For `O=P1(Cc2ccccc2)c2ccccc2-c2ccccc21`, the GI50 in the test on COLO 205 was 2.63 µM (inactive); in the test on EKVX, 20.4 µM (inactive); with HCC 2998, 1.51 µM (inactive); in the test with HCT-15, 37.2 µM; in the test with HOP-92, 0.376 µM (active); in the test with HT-29, 2.37 µM (inactive). Moreover, the GI50 is 2.15 µM (inactive) with Malme-3M; 5.77 µM (inactive) in the test on NCI-H226; 3.86 µM (inactive) in the test on NCI-H23; 4.04 µM (inactive) in the test with NCI-H460; 11 µM (inactive) with OVCAR-4; 12.1 µM (inactive) in the test on OVCAR-5. In addition, the GI50 in the test on OVCAR-8 is 4.4 µM (inactive); in the test with SF-295, 5.98 µM (inactive); with SK-MEL-28, 4.13 µM (inactive); in the test on SNB-19, 3.69 µM (inactive); in the test on SR it was 3.89 µM (inactive); in the test with UACC-257, 1.86 µM (inactive).

For `Cc1nc2ccccc2c(=O)n1/N=C(\N=N\c1ccc(Cl)cc1)c1cccc(-c2ccco2)c1`, the GI50 is 31.8 µM (inactive) with COLO 205; 51.8 µM (inactive) in the test with EKVX; 30.2 µM in the test on HCT-15; 16.1 µM (inactive) with HOP-92; 34.3 µM (inactive) in the test with HT-29; 34.1 µM (inactive) in the test with M19-MEL. The GI50 with NCI-H23 was 21.6 µM (inactive); in the test on NCI-H460 it was 37.7 µM (inactive); in the test on OVCAR-8 it was 33.1 µM (inactive); in the test with SF-295 it was 48.5 µM (inactive); in the test with SK-MEL-28, 16.8 µM (inactive).

With `Cc1n[nH]c(=O)n1/N=C/c1cccnc1`, the GI50 was > 100 µM (inactive) in the test on COLO 205; > 100 µM (inactive) in the test with EKVX; > 100 µM (inactive) in the test on HCC 2998; above 100 µM in the test on HCT-15; 33.4 µM (inactive) in the test with HOP-92; > 100 µM (inactive) with HT-29. The GI50 in the test with Malme-3M, with NCI-H226, in the test with NCI-H23, in the test on NCI-H460, with OVCAR-4 and in the test on OVCAR-5 was > 100 µM (inactive) throughout. For the same compound, the GI50 with OVCAR-8, in the test with SF-295, in the test with SK-MEL-28, in the test with SNB-19, in the test on SR and in the test with UACC-257 was > 100 µM (inactive) throughout.

As for `CCN(CC)/[N+]([O-])=N/O`, the GI50 in the test with EKVX is > 100 µM (inactive); in the test with HCC 2998, > 100 µM (inactive); in the test on HCT-15 it was above 100 µM; in the test on HOP-92, > 100 µM (inactive); in the test with HT-29 it was > 100 µM (inactive); with M19-MEL it was > 100 µM (inactive). In addition, the GI50 with NCI-H226, in the test on NCI-H23, in the test on NCI-H460, in the test with OVCAR-5, in the test on OVCAR-8 and in the test on SF-295 was > 100 µM (inactive) each time. For the same compound, the GI50 in the test with SK-MEL-28, in the test with SNB-19, in the test with SR and in the test with UACC-257 was > 100 µM (inactive) each time.
